Assay results: US8492346B2, “Methods of use of epsilon inhibitor compounds for the attenuation of pain” (KAI Pharmaceuticals, Inc., priority 2007, dated 2013)

Legend:
[1] = Chemical stability of cargo/carrier peptide constructs; format: physicochemical; conditions: 9 days of treatment
Experimental: (§1) The plasma and chemical stability of various cargo/carrier peptide constructs described in Example 1 was tested. Plasma stability of the compounds was tested using both human and rat sera and the amount of starting material was determined after 30 minutes of treatment. Chemical stability was evaluated by determining the amount of starting material remaining after 9 days of treatment.
The chemical stability of various cargo/carrier peptide constructs described in Example 1 was tested by examining the relative concentration of the peptides over a time period of more than 200 hours at 37° C.

[2] = Plasma stability in human sera; format: in vitro ADME; conditions: plasma; human sera, 30 minutes
Experimental: as §1
(§2) The plasma stability of various cargo/carrier peptide constructs described in Example 1 was tested using both human and rat sera and the amount of starting material was determined over time to 30 minutes of treatment. The time course data for cargo/carrier peptides KP-1586, KP-1630, and KP-1631 is shown in FIG. 3, the data for peptides KP-1632, KP-1633, and KP-1634 is shown in FIG. 4, and the data for peptides KP-1635, KP-1636, and KP-1637 is shown in FIG. 5.

[3] = Plasma stability in rat sera; format: in vitro ADME; conditions: 30 minutes
Experimental: as §1, §2

CC(=O)N[C@@H](CSSC[C@H](NC(C)=O)C(=O)N[C@@H](CCC(=O)O)C(=O)N[C@@H](C)C(=O)N[C@H](C(=O)N[C@@H](CO)C(=O)N[C@@H](CC(C)C)C(=O)N[C@@H](CCCCN)C(=O)N1CCC[C@H]1C(=O)N[C@H](C(=O)N[C@@H](C)C(=O)N[C@@H](Cc1c[nH]c2ccccc12)C(=O)N[C@@H](CO)C(=O)N[C@@H](CC(C)C)C(=O)N[C@@H](CCCNC(=N)N)C(=O)O)[C@@H](C)O)C(C)C)C(=O)N[C@@H](Cc1ccc(O)cc1)C(=O)NCC(=O)N[C@@H](CCCNC(=N)N)C(=O)N[C@@H](CCCCN)C(=O)N[C@@H](CCCCN)C(=O)N[C@@H](CCCNC(=N)N)C(=O)N[C@@H](CCCNC(=N)N)C(=O)N[C@@H](CCC(N)=O)C(=O)N[C@@H](CCCNC(=N)N)C(=O)N[C@@H](CCCNC(=N)N)C(=O)N[C@@H](CCCNC(=N)N)C(N)=O [KP-1632, Ac-C-E-A-V-S-L-K-P-T-A-W-S-L-R]
remaining at 216 h [1]: 89% | remaining at 0.5 h [2]: 54% | remaining at 0.5 h [3]: 61%
